For test [1], the system named is NCI-H460. Description: Induction of apoptosis in human NCI-H460 cells assessed as viable cells at 8 uM after 24 hrs by Annexin V/propidium iodide staining-based flow cytometry (reference value: 72.2%). The following applies: NCI-H460, 24 h, read-out: Activity. It counts as functional. For orientation: Flow cytometry measures light scatter and fluorescence of single cells or particles in a stream.

The subject of test [2] is NCI-H460. Description: Induction of apoptosis in human NCI-H460 cells assessed as karyopyknosis and chromatin condensation at 8 uM after 12 to 48 hrs by Hoechst 33258 staining-based fluorescence microscopy relative to control. Type of test: functional, cell-based.
The subject of another test is A549. Description: cells. The following applies: Homo sapiens, A549, 48 h.
For test [3], the system named is NCI-H460. Description: Induction of apoptosis in human NCI-H460 cells assessed as early apoptotic cells at 5 to 20 uM after 24 hrs by Annexin V/propidium iodide staining-based flow cytometry relative to control. Type of test: functional, cell-based.

Calls of active or inactive are those of the source. No cut-off for these calls is given here.

Description for A549: Cytotoxicity against human A549 cells after 48 hrs by MTT assay

For the molecule `CCOP(=O)(OCC)C(NC(=O)C(C)Oc1ccc2c(c1O)C(=O)c1ccccc1C2=O)c1cccc2ccccc12` (configuration not stated), the viability at 8 µM in the test on NCI-H460 [1] stood at 47.5%. Besides, the result in the test with NCI-H460 [2] and with NCI-H460 [3] was Active. This molecule also came in with an IC50 in the test on A549 of 15.9 µM.

Take `CCOP(=O)(OCC)C(NC(=O)C(C)Oc1ccc2c(c1O)C(=O)c1ccccc1C2=O)c1ccccc1OC` (configuration not stated): in the test with NCI-H460 [1], the viability at 8 µM was found to be 47.5%. The outcome in the test with NCI-H460 [2] and in the test on NCI-H460 [3] was Active. Moreover, the IC50 with A549 is 12.3 µM.

On to `CCOP(=O)(OCC)C(NC(=O)C(C)Oc1ccc2c(c1O)C(=O)c1ccccc1C2=O)c1ccccc1F` (configuration not stated), for which the viability at 8 µM with NCI-H460 [1] was found to be 46.3%. The outcome in the test on NCI-H460 [2] and in the test on NCI-H460 [3] was Active. Also, the IC50 in the test on A549 was determined as 6.76 µM.

As usually defined, the IC50 is the concentration needed to halve the response being measured.

The values are drawn from ChEMBL document CHEMBL3297657, “Synthesis and antitumor activities of novel α-aminophosphonate derivatives containing an alizarin moiety” (Eur J Med Chem, 2014).
